Data reported in patent US20060009445A1, “Tumor-inhibiting anellated azepinone derivatives” (Faustus Forschungs CIE. Translational Cancer Research GmbH, priority 2002, published 2006).

Experiments:
Assay type in all cases: cell-based
MOLT-4 = assay: XTT assay, tumor-inhibiting effect in vitro, MOLT-4; settings: Homo sapiens, incubation period 48 hours
Experimental: (§1) The tumor-inhibiting effect was tested in vitro in the XTT assay with an example of various cell lines. The incubation period was 48 hours (IC50 values in μM).

NCI-H460 = assay: XTT assay, tumor-inhibiting effect in vitro, NCI-H460; settings: Homo sapiens, incubation period 48 hours
Experimental: as §1

MCF-7 = assay: XTT assay, tumor-inhibiting effect in vitro, MCF-7; settings: Homo sapiens, MCF7, incubation period 48 hours
Experimental: as §1

COLO 205 = assay: XTT assay, tumor-inhibiting effect in vitro, COLO 205; settings: Homo sapiens, incubation period 48 hours
Experimental: as §1

K-562 = assay: XTT assay, tumor-inhibiting effect in vitro, K-562; settings: Homo sapiens, K562, incubation period 48 hours
Experimental: as §1

HT-29 = assay: XTT assay, tumor-inhibiting effect in vitro, HT-29; settings: Homo sapiens, incubation period 48 hours
Experimental: as §1

OVCAR 3 = assay: XTT assay, tumor-inhibiting effect in vitro, OVCAR 3; settings: Homo sapiens, incubation period 48 hours
Experimental: as §1

SK-MEL-28 = assay: XTT assay, tumor-inhibiting effect in vitro, SK-MEL-28; settings: Homo sapiens, incubation period 48 hours
Experimental: as §1

SW-620 = assay: XTT assay, tumor-inhibiting effect in vitro, SW-620; settings: Homo sapiens, incubation period 48 hours
Experimental: as §1

HCT-116 = assay: XTT assay, tumor-inhibiting effect in vitro, HCT-116; settings: Homo sapiens, incubation period 48 hours
Experimental: as §1

SK-MEL-5 = assay: XTT assay, tumor-inhibiting effect in vitro, SK-MEL-5; settings: Homo sapiens, incubation period 48 hours
Experimental: as §1

CCRF-CEM = assay: XTT assay, tumor-inhibiting effect in vitro, CCRF-CEM; settings: Homo sapiens, incubation period 48 hours
Experimental: as §1

NCI-H226 = assay: XTT assay, tumor-inhibiting effect in vitro, NCI-H226; settings: Homo sapiens, incubation period 48 hours
Experimental: as §1

HCT-15 = assay: XTT assay, tumor-inhibiting effect in vitro, HCT-15; settings: Homo sapiens, incubation period 48 hours
Experimental: as §1

Row | IC50 (MOLT-4) | IC50 (NCI-H460) | IC50 (MCF-7) | IC50 (COLO 205) | IC50 (K-562) | IC50 (HT-29) | IC50 (OVCAR 3) | IC50 (SK-MEL-28) | IC50 (SW-620) | IC50 (HCT-116) | IC50 (SK-MEL-5) | IC50 (CCRF-CEM) | IC50 (NCI-H226) | IC50 (HCT-15) | Structure (SMILES)
1 | 2.9 µM | 9.51 µM | 10.4 µM | 5.25 µM | 1.56 µM | 6.61 µM | 6.82 µM | 7.98 µM | 3.83 µM | 2.56 µM | 10 µM | 1.66 µM | 7.19 µM | 0.74 µM | Oc1ccccc1/C=N/N=C1\Cc2c([nH]c3ccc(Br)cc23)-c2ccccc2N1 [KP1437]
2 | 2.63 µM | 14.4 µM | 20.7 µM | 13.3 µM | 48.4 µM | 9.46 µM | 2.59 µM | 18.5 µM | 22.8 µM | 26.4 µM | 19.4 µM | 5.47 µM | 30.1 µM | 24.1 µM | NC(=S)N/N=C1\Cc2c([nH]c3ccc(Br)cc23)-c2ccccc2N1 [KP 1428]
